Measured values reported in patent US20240100176A1, “HUMAN INTERLEUKIN-4 RECEPTOR ALPHA ANTIBODY GLUCOCORTICOID CONJUGATES” (Eli Lilly and Company, priority 2022, published 2024).

How the values were obtained:
Type in all cases: cell-based
[1] = tested on: IL-4 induced proliferation of human primary B cells; assay: Inhibition of IL-4 induced B cell proliferation
Description: Human PBMCs were isolated from human blood samples by standard Ficoll-Paque™ plus (GE […]) density gradient centrifugation methods, and primary B cells were isolated from the PBMC suspension by negative selection with EasySep™ Human Naïve B cell Enrichment kit according to the manufacturer's protocol ([…]™ Technologies). […] Cells were stimulated with Human CD40/TNFRSF5 Antibody (200 ng/mL; R&D SYSTEMS) and with IL-4 recombinant human protein (5 ng/mL; R&D SYSTEMS) for 2 days at 37° C. and 5% CO2. Cells were then pulsed with [^3H]-thymidine ([…] thymidine/well; PerkinElmer®) for 18 hours at 37° C. and level of [^3H]-thymidine incorporation was measured by a Microplate Counter (MicroBeta 2; PerkinElmer®) and expressed as a […] (CCPM). Statistical analysis was performed using GraphPad Prism 9 and curves were generated by fitting a sigmoidal curve of the log (Ab concentration) vs. the mean percent inhibition of CCPM compared to CD40 stimulation alone from two donors.

[2] = tested on: GM-CSF secretion from Human PBMCs; assay: Inhibition of cytokine secretion from human PBMCs; details: PBMC; PHA-M/PMA stimulated human PBMCs, 48 hours; 100 nM
Description: (§1) Example 4h. Inhibition of Cytokine secretion from Human PBMCs: PBMCs were isolated from Ficoll-layered blood centrifuged at 400×g for 30 minutes at room temperature. The PBMC layer was washed with sterile RPMI-1640 media (Corning® Cat. #10041CV) and centrifuged at 1500 rpm for 5 min, at 4° C. Red blood cells are lysed by resuspending the cell pellet in 5 mL of ACK Lysing Buffer (GIBCO Cat. #A1049201) and incubating at room temperature for 5 minutes. […] The plates are incubated at 37° C. with 5% CO2 for 48 hours. After the incubation period, plates are centrifuged at 2000 rpm for 1 min and the top 100 μL of the supernatants are removed and stored at −80° C., until ready to perform cytokine detection. Cytokine release is detected using the U-PLEX Custom Biomarker [Human] Multiplex Assay (MESO SCALE DISCOVERY), according to the manufacturer's protocol. Statistical analysis is performed using GraphPad Prism 9. Data was presented as sigmoidal curve fits of the mean of the individual donors' percent inhibition for each cytokine (n=2) vs. the log(Ab concentration) and statistical analysis is performed using GraphPad Prism 9.

[3] = tested on: IL-5 secretion from Human PBMCs; assay: Inhibition of cytokine secretion from human PBMCs; details: PBMC; PHA-M/PMA stimulated human PBMCs, 48 hours; 100 nM
Description: as §1

[4] = tested on: MDC secretion from Human PBMCs; assay: Inhibition of cytokine secretion from human PBMCs; details: PBMC; PHA-M/PMA stimulated human PBMCs, 48 hours; 100 nM
Description: as §1

[5] = tested on: anti-CD40 induced proliferation of human primary B cells; assay: Glucocorticoid receptor mediated inhibition of anti-CD40 induced B cell proliferation
Description: Human PBMCs were isolated from human blood samples by standard Ficoll-Paque™ plus (GE […]) density gradient centrifugation methods, and primary B cells were isolated from the PBMC suspension by negative selection with EasySep™ Human Naïve B cell Enrichment kit according to the manufacturer's protocol ([…]™ Technologies). […] Cells were then pulsed with [^3H]-thymidine ([…] thymidine/well; PerkinElmer®) for 18 hours at 37° C. and level of [^3H]-thymidine incorporation was measured by a Microplate Counter (MicroBeta 2; PerkinElmer®) and expressed as a […] (CCPM). Statistical analysis was performed using GraphPad Prism 9 and curves were generated by fitting a sigmoidal curve of the log(Ab concentration) vs. the mean percent inhibition of CCPM compared to no stimulation from 2 donors.

Cc1ccc(OCc2cccc(N)c2)c(F)c1[C@H]1O[C@@H]2C[C@H]3[C@@H]4CCC5=CC(=O)C=C[C@]5(C)[C@H]4[C@@H](O)C[C@]3(C)[C@]2(C(=O)CO)O1 (single isomer, unassigned) [GC1]
inhibition at 0.06667 µM ([1]; Homo sapiens, B-cell, IL-4 induced, 66.67 nM): 25.7%
Inhibition of IL-4 induced B cell proliferation (in words) ([1]; compared to the isotype control): no significant inhibition was observed
inhibition at 0.1 µM [2]: 90.8%
inhibition at 0.1 µM [3]: 97.4%
inhibition at 0.1 µM [4]: 96.1%
IC50 ([5]; anti-CD40 (200 ng/mL) induced, no IL-4): 3.73 nM
inhibition at 0.1 µM ([5]; read-out: Inhibition of B cell proliferation at 100 nM % inhibition, anti-CD40 induced, 100 nM): 66.5%
